Measured values reported in PubChem BioAssay AID330 (DTP/NCI, 2004).
Values joined by “and” are separate entries in the source; they are usually repeats but may differ in a detail not shown here. Equal entries are not always repeated. Toxic doses and inconclusive results are not listed. Rule for the calls: active = survival T/C of 150% or more; inactive = T/C below 125% in these data.

Test system: P388 leukemia ip, CD2F1 mice, survival T/C
Assay: NCI In Vivo Anticancer Drug Screen. Data for tumor model P388 Leukemia (intraperitoneal) in CD2F1 (CDF1) mice
Conditions: endpoint: median survival time, higher = longer survival
In short: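 Mice carrying the transplanted tumor received test compound or vehicle. Survival was recorded in each group, and the value is the treated-group measurement divided by that of the vehicle-treated control group.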

[1] = dose: 50.0 mg/kg/injection, schedule: Q01DX009 (ip), vehicle: saline with Tween-80
[2] = dose: 100.0 mg/kg/injection, schedule: Q01DX009 (ip), vehicle: saline with Tween-80
[3] = dose: 100.0 mg/kg/injection, schedule: Q01DX001 (ip), vehicle: Klucel (hydroxypropylcellulose) (HPC)
[4] = dose: 200.0 mg/kg/injection, schedule: Q01DX001 (ip), vehicle: Klucel (hydroxypropylcellulose) (HPC)
[5] = dose: 400.0 mg/kg/injection, schedule: Q01DX001 (ip), vehicle: Klucel (hydroxypropylcellulose) (HPC)
[6] = dose: 50.0 mg/kg/injection, schedule: Q01DX005 (ip), vehicle: Klucel (hydroxypropylcellulose) (HPC)
[7] = dose: 100.0 mg/kg/injection, schedule: Q01DX005 (ip), vehicle: Klucel (hydroxypropylcellulose) (HPC)
[8] = dose: 200.0 mg/kg/injection, schedule: Q01DX005 (ip), vehicle: Klucel (hydroxypropylcellulose) (HPC)
[9] = dose: 60.0 mg/kg/injection, schedule: Q01DX005 (ip), vehicle: saline with Tween-80
[10] = dose: 120.0 mg/kg/injection, schedule: Q01DX005 (ip), vehicle: saline with Tween-80
[11] = dose: 60.0 mg/kg/injection, schedule: Q01DX005 (ip), vehicle: Klucel (hydroxypropylcellulose) (HPC)
[12] = dose: 120.0 mg/kg/injection, schedule: Q01DX005 (ip), vehicle: Klucel (hydroxypropylcellulose) (HPC)
[13] = dose: 240.0 mg/kg/injection, schedule: Q01DX005 (ip), vehicle: Klucel (hydroxypropylcellulose) (HPC)

Measured: T/C

[O-][n+]1ccccc1C(O)CSc1ccccc1 (stereo not drawn)
inactive: [1] 100 % of control | [2] 101 % of control | dose: 200.0 mg/kg/injection, schedule: Q01DX009 (ip), vehicle: saline with Tween-80 100 % of control

Cc1c(O)c(O)c2c(c1O)N=C(Cl)/C2=C\N=NC(N)=S
inactive: [3] 99 % of control | [4] 95 % of control | [5] 106 % of control

O=C(NCCNC(=O)[C@H]1CCCN1)[C@H]1CCCN1
inactive: dose: 60.0 mg/kg/injection, schedule: Q01DX005 (ip), vehicle: saline 98 % of control | dose: 120.0 mg/kg/injection, schedule: Q01DX005 (ip), vehicle: saline 91 % of control | dose: 240.0 mg/kg/injection, schedule: Q01DX005 (ip), vehicle: saline 93 % of control

CCC(C)(CC(=O)O)c1ccccc1 (stereo not drawn)
inactive: dose: 25.0 mg/kg/injection, schedule: Q04DX003 (ip), vehicle: Klucel (hydroxypropylcellulose) (HPC) 108 % of control | dose: 50.0 mg/kg/injection, schedule: Q04DX003 (ip), vehicle: Klucel (hydroxypropylcellulose) (HPC) 111 % of control | dose: 100.0 mg/kg/injection, schedule: Q04DX003 (ip), vehicle: Klucel (hydroxypropylcellulose) (HPC) 112 % of control | dose: 200.0 mg/kg/injection, schedule: Q04DX003 (ip), vehicle: Klucel (hydroxypropylcellulose) (HPC) 115 % of control

CCCSc1ncnc2nc(C)[nH]c12
inactive: dose: 0.39 mg/kg/injection, schedule: Q01DX009 (ip), vehicle: saline with Tween-80 95 % of control | dose: 0.78 mg/kg/injection, schedule: Q01DX009 (ip), vehicle: saline with Tween-80 92 % of control | dose: 1.56 mg/kg/injection, schedule: Q01DX009 (ip), vehicle: saline with Tween-80 98 % of control | dose: 3.13 mg/kg/injection, schedule: Q01DX009 (ip), vehicle: saline with Tween-80 94 % of control

CCC1C2C(C(C)c3c[nH]c4ccccc34)NC(=O)C23C(=O)/C=C\C(=O)C(O)/C(C)=C/C(C)C/C=C/C3C2OC12C (stereo not drawn)
inactive: dose: 0.38 mg/kg/injection, schedule: Q01DX005 (ip), vehicle: Klucel (hydroxypropylcellulose) (HPC) 105 % of control and 108 % of control | dose: 0.75 mg/kg/injection, schedule: Q01DX005 (ip), vehicle: Klucel (hydroxypropylcellulose) (HPC) 110 % of control and 118 % of control | dose: 1.5 mg/kg/injection, schedule: Q01DX005 (ip), vehicle: Klucel (hydroxypropylcellulose) (HPC) 106 % of control and 122 % of control

NC(CO)(CO)CO
inactive: dose: 1600.0 mg/kg/injection, schedule: Q01DX007 (ip), vehicle: saline 121 % of control

N=Cc1c(O)n(C2CCCCC2)c(=O)[nH]c1=O
inactive: [2] 90 % of control | dose: 400.0 mg/kg/injection, schedule: Q01DX009 (ip), vehicle: saline with Tween-80 95 % of control

COc1ccc2cccc3c4cccc5ccc(OC)c(c1c23)c54
inactive: [6] 97 % of control | [7] 99 % of control | [8] 99 % of control

CC(=N\N)/C(C)=N/N
inactive: dose: 25.0 mg/kg/injection, schedule: Q01DX009 (ip), vehicle: saline with Tween-80 100 % of control | [1] 121 % of control

COc1ccc(/C=C/C2=CC(=O)CC(/C=C/c3ccc(OC)c(OC)c3)C2)cc1OC (stereo not drawn)
inactive: [3] 89 % of control | [4] 100 % of control | [5] 97 % of control

c1ccc(SCc2ccc3c(c2)OCO3)cc1
inactive: [3] 107 % of control | [4] 102 % of control | [5] 100 % of control

COC1C=CC(=O)C(C)(c2ccc(S(=O)(=O)c3ccccc3)cc2)O1 (stereo not drawn)
inactive: [9] 104 % of control | [10] 95 % of control | dose: 240.0 mg/kg/injection, schedule: Q01DX005 (ip), vehicle: saline with Tween-80 106 % of control

O=C1c2ccccc2C(=O)N1CN(CS(=O)(=O)c1ccccc1)c1ccccc1
inactive: [11] 98 % of control | [12] 88 % of control | [13] 86 % of control

C1CCC(NC2CCCCC2)CC1
inactive: dose: 12.5 mg/kg/injection, schedule: Q01DX005 (ip), vehicle: saline 103 % of control | dose: 23.7 mg/kg/injection, schedule: Q01DX005 (ip), vehicle: saline 100 % of control | dose: 25.0 mg/kg/injection, schedule: Q01DX005 (ip), vehicle: saline 102 % of control | dose: 35.6 mg/kg/injection, schedule: Q01DX005 (ip), vehicle: saline 100 % of control | dose: 50.0 mg/kg/injection, schedule: Q01DX005 (ip), vehicle: saline 100 % of control | dose: 53.3 mg/kg/injection, schedule: Q01DX005 (ip), vehicle: saline 100 % of control | dose: 80.0 mg/kg/injection, schedule: Q01DX005 (ip), vehicle: saline 100 % of control | dose: 100.0 mg/kg/injection, schedule: Q01DX005 (ip), vehicle: saline 93 % of control | dose: 200.0 mg/kg/injection, schedule: Q01DX005 (ip), vehicle: saline 102 % of control

COC(=O)C(C)C(O)C(C)N (stereo not drawn)
inactive: dose: 12.5 mg/kg/injection, schedule: Q01DX009 (ip), vehicle: water 107 % of control | dose: 25.0 mg/kg/injection, schedule: Q01DX009 (ip), vehicle: water 118 % of control | dose: 50.0 mg/kg/injection, schedule: Q01DX009 (ip), vehicle: water 106 % of control | dose: 100.0 mg/kg/injection, schedule: Q01DX009 (ip), vehicle: water 98 % of control | dose: 200.0 mg/kg/injection, schedule: Q01DX009 (ip), vehicle: water 100 % of control

CCOC(C)(c1ccc(Cl)cc1)C1CCNCC1 (stereo not drawn)
inactive: [1] 101 % of control | [2] 119 % of control

CC(=O)[C-](I)C(C)=O.CC(=O)[C-](I)C(C)=O.CC(=O)[C-](I)C(C)=O.[Ru+3]
inactive: [11] 106 % of control | [12] 106 % of control | [13] 115 % of control

O=C(N/N=C/c1ccccc1O)C(=O)Nc1ccc(F)cc1
inactive: [6] 94 % of control | [7] 92 % of control | [8] 87 % of control

CCCCCCCCCC(=O)Nc1ncc([N+](=O)[O-])s1
inactive: dose: 50.0 mg/kg/injection, schedule: Q01DX009 (ip), vehicle: Klucel (hydroxypropylcellulose) (HPC) 94 % of control | dose: 100.0 mg/kg/injection, schedule: Q01DX009 (ip), vehicle: Klucel (hydroxypropylcellulose) (HPC) 91 % of control | dose: 200.0 mg/kg/injection, schedule: Q01DX009 (ip), vehicle: Klucel (hydroxypropylcellulose) (HPC) 94 % of control

C#CC1(O)CC(c2ccccc2)N(C)C(c2ccccc2)C1 (stereo not drawn)
inactive: dose: 12.5 mg/kg/injection, schedule: Q01DX005 (ip), vehicle: saline with Tween-80 93 % of control | dose: 25.0 mg/kg/injection, schedule: Q01DX005 (ip), vehicle: saline with Tween-80 98 % of control | dose: 50.0 mg/kg/injection, schedule: Q01DX005 (ip), vehicle: saline with Tween-80 98 % of control and 87 % of control

CC(=O)/C=C(\C)Nc1noc(-c2ccccc2)n1
inactive: dose: 4.38 mg/kg/injection, schedule: Q01DX005 (ip), vehicle: Klucel (hydroxypropylcellulose) (HPC) 102 % of control | dose: 8.75 mg/kg/injection, schedule: Q01DX005 (ip), vehicle: Klucel (hydroxypropylcellulose) (HPC) 96 % of control | dose: 17.5 mg/kg/injection, schedule: Q01DX005 (ip), vehicle: Klucel (hydroxypropylcellulose) (HPC) 101 % of control

CCOC(=O)C(CO)NC(=O)c1cnc2ccccc2c1 (stereo not drawn)
inactive: [9] 99 % of control | [10] 97 % of control
